In ChEMBL document CHEMBL5724806, “Unraveling interindividual differences and functional consequences of gut microbial metabolism of immunosuppressants” (2024):

Assays:
Type in all cases: ADME
[1] = (§1) The drug is tested on the gut metagenome community of A-02 with ENA study accession number: PRJEB31790 for biotransformation under microaerobic condition. The drug concentrations were measured over 7 timepoints collected between 0 and 12 hours of incubation by liquid-chromatography-coupled mass spectrometry (LC–MS); design: dose 5 uM, timepoint 0, 0.75, 1.5, 3, 6, 9, 12 hours; conditions: 5 µM
[2] = as §1, with “T-04” for “A-02”; design: dose 5 uM, timepoint 0, 0.75, 1.5, 3, 6, 9, 12 hours; conditions: 5 µM
[3] = as §1, with “T-03” for “A-02”, “anaerobic” for “microaerobic”; design: dose 5 uM, timepoint 0, 0.75, 1.5, 3, 6, 9, 12 hours; conditions: 5 µM
[4] = The drug is tested on Streptococcus salivarius strain: DSM20560 for biotransformation under microaerobic condition. The drug concentrations were measured over 6 timepoints collected between 0 and 12 hours of incubation by liquid-chromatography-coupled mass spectrometry (LC–MS); design: dose 5 uM, timepoint 0, 1.5, 3, 6, 9, 12 hours; conditions: 5 µM
[5] = The drug is tested on Bifidobacterium adolescentis strain: DSM20083 for biotransformation under anaerobic condition. The drug concentrations were measured over 6 timepoints collected between 0 and 12 hours of incubation by liquid-chromatography-coupled mass spectrometry (LC–MS); design: dose 5 uM, timepoint 0, 1.5, 3, 6, 9, 12 hours; conditions: 5 µM
[6] = The drug is tested on Coprococcus comes strain: ATCC27758 for biotransformation under anaerobic condition. The drug concentrations were measured over 6 timepoints collected between 0 and 12 hours of incubation by liquid-chromatography-coupled mass spectrometry (LC–MS); design: dose 5 uM, timepoint 0, 1.5, 3, 6, 9, 12 hours; conditions: 5 µM
[7] = as §1, with “A-10” for “A-02”; design: dose 5 uM, timepoint 0, 0.75, 1.5, 3, 6, 9, 12 hours; conditions: 5 µM
[8] = as §1, with “T-03” for “A-02”; design: dose 5 uM, timepoint 0, 0.75, 1.5, 3, 6, 9, 12 hours; conditions: 5 µM
[9] = The drug is tested on Odoribacter splanchnicus strain: DSM20712 for biotransformation under anaerobic condition. The drug concentrations were measured over 6 timepoints collected between 0 and 12 hours of incubation by liquid-chromatography-coupled mass spectrometry (LC–MS); design: dose 5 uM, timepoint 0, 1.5, 3, 6, 9, 12 hours; conditions: 5 µM
[10] = as §1, with “anaerobic” for “microaerobic”; design: dose 5 uM, timepoint 0, 0.75, 1.5, 3, 6, 9, 12 hours; conditions: 5 µM
[11] = The drug is tested on Alloscardovia omnicolens strain: DSM21503 for biotransformation under anaerobic condition. The drug concentrations were measured over 6 timepoints collected between 0 and 12 hours of incubation by liquid-chromatography-coupled mass spectrometry (LC–MS); design: dose 5 uM, timepoint 0, 1.5, 3, 6, 9, 12 hours; conditions: 5 µM
[12] = The drug is tested on Escherichia coli strain: DSM27469 for biotransformation under microaerobic condition. The drug concentrations were measured over 6 timepoints collected between 0 and 12 hours of incubation by liquid-chromatography-coupled mass spectrometry (LC–MS); design: dose 5 uM, timepoint 0, 1.5, 3, 6, 9, 12 hours; conditions: 5 µM
[13] = The drug is tested on Streptococcus salivarius strain: DSM20560 for biotransformation under anaerobic condition. The drug concentrations were measured over 6 timepoints collected between 0 and 12 hours of incubation by liquid-chromatography-coupled mass spectrometry (LC–MS); design: dose 5 uM, timepoint 0, 1.5, 3, 6, 9, 12 hours; conditions: 5 µM
[14] = The drug is tested on Escherichia coli strain: DSM27469 for biotransformation under anaerobic condition. The drug concentrations were measured over 6 timepoints collected between 0 and 12 hours of incubation by liquid-chromatography-coupled mass spectrometry (LC–MS); design: dose 5 uM, timepoint 0, 1.5, 3, 6, 9, 12 hours; conditions: 5 µM
[15] = as §1, with “P-03” for “A-02”; design: dose 5 uM, timepoint 0, 0.75, 1.5, 3, 6, 9, 12 hours; conditions: 5 µM
[16] = as §1, with “A-07” for “A-02”; design: dose 5 uM, timepoint 0, 0.75, 1.5, 3, 6, 9, 12 hours; conditions: 5 µM
[17] = as §1, with “P-01” for “A-02”, “anaerobic” for “microaerobic”; design: dose 5 uM, timepoint 0, 0.75, 1.5, 3, 6, 9, 12 hours; conditions: 5 µM
[18] = The drug is tested on Bacteroides stercoris strain: HM 1036 for biotransformation under anaerobic condition. The drug concentrations were measured over 6 timepoints collected between 0 and 12 hours of incubation by liquid-chromatography-coupled mass spectrometry (LC–MS); design: dose 5 uM, timepoint 0, 1.5, 3, 6, 9, 12 hours; conditions: 5 µM
[19] = The drug is tested on Lactobacillus paracasei strain: ATCC27092 for biotransformation under anaerobic condition. The drug concentrations were measured over 6 timepoints collected between 0 and 12 hours of incubation by liquid-chromatography-coupled mass spectrometry (LC–MS); design: dose 5 uM, timepoint 0, 1.5, 3, 6, 9, 12 hours; conditions: lacticaseibacillus paracasei, 5 µM
[20] = The drug is tested on Lactobacillus reuteri strain: DSM20016 for biotransformation under anaerobic condition. The drug concentrations were measured over 6 timepoints collected between 0 and 12 hours of incubation by liquid-chromatography-coupled mass spectrometry (LC–MS); design: dose 5 uM, timepoint 0, 1.5, 3, 6, 9, 12 hours; conditions: limosilactobacillus reuteri, 5 µM
[21] = as §1, with “P-01” for “A-02”; design: dose 5 uM, timepoint 0, 0.75, 1.5, 3, 6, 9, 12 hours; conditions: 5 µM
[22] = The drug is tested on Bifidobacterium longum strain: DSM20088 for biotransformation under anaerobic condition. The drug concentrations were measured over 6 timepoints collected between 0 and 12 hours of incubation by liquid-chromatography-coupled mass spectrometry (LC–MS); design: dose 5 uM, timepoint 0, 1.5, 3, 6, 9, 12 hours; conditions: 5 µM
[23] = The drug is tested on Lactobacillus ruminis strain: ATCC25644 for biotransformation under microaerobic condition. The drug concentrations were measured over 6 timepoints collected between 0 and 12 hours of incubation by liquid-chromatography-coupled mass spectrometry (LC–MS); design: dose 5 uM, timepoint 0, 1.5, 3, 6, 9, 12 hours; conditions: ligilactobacillus ruminis, 5 µM
[24] = as §1, with “T-04” for “A-02”, “anaerobic” for “microaerobic”; design: dose 5 uM, timepoint 0, 0.75, 1.5, 3, 6, 9, 12 hours; conditions: 5 µM
[25] = The drug is tested on Enterococcus faecalis strain: ATCC29212 for biotransformation under anaerobic condition. The drug concentrations were measured over 6 timepoints collected between 0 and 12 hours of incubation by liquid-chromatography-coupled mass spectrometry (LC–MS); design: dose 5 uM, timepoint 0, 1.5, 3, 6, 9, 12 hours; conditions: 5 µM
[26] = The drug is tested on Actinomyces graevenitzii strain: DSM15540 for biotransformation under microaerobic condition. The drug concentrations were measured over 6 timepoints collected between 0 and 12 hours of incubation by liquid-chromatography-coupled mass spectrometry (LC–MS); design: dose 5 uM, timepoint 0, 1.5, 3, 6, 9, 12 hours; conditions: 5 µM
[27] = as §1, with “A-03” for “A-02”, “anaerobic” for “microaerobic”; design: dose 5 uM, timepoint 0, 0.75, 1.5, 3, 6, 9, 12 hours; conditions: 5 µM
[28] = as §1, with “T-05” for “A-02”; design: dose 5 uM, timepoint 0, 0.75, 1.5, 3, 6, 9, 12 hours; conditions: 5 µM
[29] = The drug is tested on Prevotella copri strain: DSM18205 for biotransformation under anaerobic condition. The drug concentrations were measured over 6 timepoints collected between 0 and 12 hours of incubation by liquid-chromatography-coupled mass spectrometry (LC–MS); design: dose 5 uM, timepoint 0, 1.5, 3, 6, 9, 12 hours; conditions: segatella copri, 5 µM
[30] = The drug is tested on Lactobacillus paracasei strain: ATCC27092 for biotransformation under microaerobic condition. The drug concentrations were measured over 6 timepoints collected between 0 and 12 hours of incubation by liquid-chromatography-coupled mass spectrometry (LC–MS); design: dose 5 uM, timepoint 0, 1.5, 3, 6, 9, 12 hours; conditions: lacticaseibacillus paracasei, 5 µM

SMILES	Bacterial Biotransformation [1]	Bacterial Biotransformation [2]	Bacterial Biotransformation [3]	Bacterial Biotransformation [4]	Bacterial Biotransformation [5]	Bacterial Biotransformation [6]	Bacterial Biotransformation [7]	Bacterial Biotransformation [8]	Bacterial Biotransformation [9]	Bacterial Biotransformation [10]	Bacterial Biotransformation [11]	Bacterial Biotransformation [12]	Bacterial Biotransformation [13]	Bacterial Biotransformation [14]	Bacterial Biotransformation [15]	Bacterial Biotransformation [16]	Bacterial Biotransformation [17]	Bacterial Biotransformation [18]	Bacterial Biotransformation [19]	Bacterial Biotransformation [20]	other results
C[C@H]1C[C@H]2[C@@H]3CCC4=CC(=O)C=C[C@]4(C)[C@@]3(F)[C@@H](O)C[C@]2(C)[C@@]1(O)C(=O)CO [BETAMETHASONE]	Compound metabolized	Compound NOT metabolized	Compound NOT metabolized	Compound NOT metabolized	Compound NOT metabolized	Compound NOT metabolized	Compound NOT metabolized	Compound NOT metabolized	Compound NOT metabolized	Compound metabolized	Compound NOT metabolized	Compound NOT metabolized	Compound NOT metabolized	Compound NOT metabolized	Compound NOT metabolized	Compound metabolized	Compound NOT metabolized	Compound NOT metabolized	Compound NOT metabolized	Compound NOT metabolized	Bacterial Biotransformation [21]: Compound NOT metabolized; Bacterial Biotransformation [22]: Compound NOT metabolized; Bacterial Biotransformation [23]: Compound NOT metabolized; Bacterial Biotransformation [24]: Compound NOT metabolized; Bacterial Biotransformation [25]: Compound NOT metabolized; Bacterial Biotransformation [26]: Compound NOT metabolized; Bacterial Biotransformation [27]: Compound metabolized; Bacterial Biotransformation [28]: Compound NOT metabolized; Bacterial Biotransformation [29]: Compound NOT metabolized; Bacterial Biotransformation [30]: Compound NOT metabolized
CCCC1O[C@@H]2C[C@H]3[C@@H]4CCC5=CC(=O)C=C[C@]5(C)[C@H]4[C@@H](O)C[C@]3(C)[C@]2(C(=O)CO)O1 (stereo not given in full) [BUDESONIDE]	Compound metabolized	Compound metabolized	Compound NOT metabolized	Compound NOT metabolized	Compound NOT metabolized	Compound NOT metabolized	Compound metabolized	Compound NOT metabolized	Compound NOT metabolized	Compound NOT metabolized	Compound NOT metabolized	Compound NOT metabolized	Compound NOT metabolized	Compound NOT metabolized	Compound NOT metabolized	Compound metabolized	Compound metabolized	Compound NOT metabolized	Compound NOT metabolized	Compound NOT metabolized	Bacterial Biotransformation [21]: Compound NOT metabolized; Bacterial Biotransformation [22]: Compound NOT metabolized; Bacterial Biotransformation [23]: Compound NOT metabolized; Bacterial Biotransformation [24]: Compound NOT metabolized; Bacterial Biotransformation [25]: Compound NOT metabolized; Bacterial Biotransformation [26]: Compound NOT metabolized; Bacterial Biotransformation [27]: Compound NOT metabolized; Bacterial Biotransformation [28]: Compound NOT metabolized; Bacterial Biotransformation [29]: Compound NOT metabolized; Bacterial Biotransformation [30]: Compound NOT metabolized
C[C@]12CCC(=O)C=C1CC[C@@H]1[C@@H]2C(=O)C[C@@]2(C)[C@H]1CC[C@]2(O)C(=O)CO [CORTISONE]	Compound metabolized	Compound NOT metabolized	Compound NOT metabolized	Compound NOT metabolized	Compound NOT metabolized	Compound NOT metabolized	Compound metabolized	Compound NOT metabolized	Compound NOT metabolized	Compound metabolized	Compound NOT metabolized	Compound NOT metabolized	Compound NOT metabolized	Compound NOT metabolized	Compound metabolized	Compound metabolized	Compound metabolized	Compound NOT metabolized	Compound NOT metabolized	Compound NOT metabolized	Bacterial Biotransformation [21]: Compound metabolized; Bacterial Biotransformation [22]: Compound NOT metabolized; Bacterial Biotransformation [23]: Compound NOT metabolized; Bacterial Biotransformation [24]: Compound NOT metabolized; Bacterial Biotransformation [25]: Compound NOT metabolized; Bacterial Biotransformation [26]: Compound NOT metabolized; Bacterial Biotransformation [27]: Compound metabolized; Bacterial Biotransformation [28]: Compound metabolized; Bacterial Biotransformation [29]: Compound NOT metabolized; Bacterial Biotransformation [30]: Compound NOT metabolized
